Results as given in paper PMC9960331, “Antioxidant and Anticancer Potential of the New Cu(II) Complexes Bearing Imine-Phenolate Ligands with Pendant Amine N-Donor Groups” (Pharmaceutics, 2023).
Like-named read-outs stand apart in the source and are kept apart here.

Legend:
[1] = DPPH radical scavenging assay; format: biochemical; conditions: for Antioxidant ability in the DPPH radical capture assay: test doses 1-200 µM
Source text: (§1) Both colorimetric assays are being used to estimate the radical scavenging capacity of organic and inorganic compounds [71, 72]. When DPPH reacts with an antioxidant compound, its free radical property is lost, and its color changes from violet to yellow. In the presence of an antioxidant, the ABTS radical, which has a strong absorption band at 734 nm, will be scavenged, and the reaction mixture will turn from blue to green. The results are expressed as a percentage of inhibition of DPPH radical or ABTS^+ radical when compared to samples from the control group (DMSO) without the compounds/standard (0% of radical inhibition). The experiment was repeated three times at each concentration.
DPPH assay: To determine the 1,1-diphenylpicrylhydrazyl (DPPH) radical scavenging activity, different concentrations of compounds (1, 5, 10, 50, 100, and 200 μM) were mixed with a methanolic solution of 0.1 mM DPPH radical for 30 min at 30 °C in the dark. The absorbance of the mixture was measured spectrophotometrically at 517 nm. The coloration change of the DPPH ethanolic solution from deep purple to yellow indicates the presence of antioxidants and then the free radical scavenging effect of these compounds. The ascorbic acid at 1, 10, 100, and 200 µM was used as a positive control to determine the maximal decrease in the DPPH absorbance. The percentage of DPPH radical scavenging activity was calculated by the following equation:% DPPH radical scavenging activity = {(A0 − A1)/A0} × 100 where A0 is the absorbance of the control, and A1 is the absorbance of the compounds/standard.

[2] = ABTS radical cation scavenging assay; format: biochemical
Source text: as §1
The radical cation ABTS was previously generated with sodium persulfate in the presence of potassium phosphate buffer. Briefly, the ABTS solution diluted in a phosphate buffer saline pH 7.4 was mixed with an aliquot of the compound for 30 min at room temperature in the dark. The ascorbic acid at 1, 10, 100, and 200 µM was used as a positive control to determine the maximal decrease in the ABTS^+ absorbance. The color reaction was measured at 730 nm and the results were expressed as a percentage (%) of the control. The ABTS radical scavenging capacity was calculated by the following equation: % ABTS^+ radical scavenging activity = {(A0 − A1)/A0} × 100 where A0 indicates the absorbance of the blank and A1 indicates the absorbance in the presence of the test sample.

[3] = system: V79 cells; assay: MTT cell viability assay, V79 cells; format: cell-based, Chinese hamster; conditions: Cricetulus griseus, V79, 24 h; read-out: IC50 V79 cell line
Description: (§2) Chinese hamster lung fibroblast (V79) cells and human cell lines [MCF-7 (breast adenocarcinoma), SW620 (colorectal adenocarcinoma), and MRC-5 (normal lung fibroblast)] were obtained from the Rio de Janeiro Cell Bank (Rio de Janeiro, RJ, Brazil). The cell lines were grown in DMEM supplemented with 10% heat-inactivated FBS or RPMI-1640 supplemented with 20% FBS, 0.2 mg/mL L-glutamine, 100 IU/mL penicillin, and 100 µg/mL streptomycin. Cells were kept in tissue culture flasks at 37 °C in a humidified atmosphere containing 5% CO2 and were harvested by treatment with 0.15% trypsin −0.08% EDTA in PBS.
The cytotoxic potential of all compounds was measured by the methylthiazol tetrazolium (MTT) assay in Chinese hamster lung fibroblasts and human cell lines. Cell lines were cultured in a 96-well plate (1 × 10^4 cells/well) in complete media. […] The activity of this solvent alone was measured by a blank sample solution containing the same amount of DMSO. After the exposure period, the culture media were replaced with the addition of 100 µL serum-free media containing the 3-(4,5-dimethylthiazol-2-yl)-2,5-diphenyltetrazolium bromide) (MTT) dye (1 mg/mL), and incubated for 3 h at 37 °C After incubation, the supernatant was removed, the residual purple formazan product was solubilized in 150 µL DMSO, and its absorbance was measured at 570 nm. […]

[4] = system: MRC-5 (normal lung fibroblast); assay: MTT cell viability assay, MRC-5; format: cell-based, human; conditions: for Concentration at which cytotoxicity starts, MRC-5: 24 h and 72 h; for IC50: Homo sapiens
Description: as §2
(§3) The cytotoxic potential of all compounds was measured by the methylthiazol tetrazolium (MTT) assay in Chinese hamster lung fibroblasts and human cell lines. Cell lines were cultured in a 96-well plate (1 × 10^4 cells/well) in complete media. V79 cells were treated for 24 h with all compounds at concentrations of 1, 10, 50 and100 µM. […] All compounds were dissolved in DMSO and added to the medium to reach the desired concentrations (0.1% of DMSO). The activity of this solvent alone was measured by a blank sample solution containing the same amount of DMSO. After the exposure period, the culture media were replaced with the addition of 100 µL serum-free media containing the 3-(4,5-dimethylthiazol-2-yl)-2,5-diphenyltetrazolium bromide) (MTT) dye (1 mg/mL), and incubated for 3 h at 37 °C After incubation, the supernatant was removed, the residual purple formazan product was solubilized in 150 µL DMSO, and its absorbance was measured at 570 nm. The assay was performed in triplicate.

[5] = system: SW620 (colorectal adenocarcinoma); assay: MTT cell viability assay, SW620; format: cell-based, human; conditions: for Concentration at which cytotoxicity starts, SW620: 24 h and 72 h; for IC50: Homo sapiens
Description: as §2, §3

[6] = system: MCF-7 (breast adenocarcinoma); assay: MTT cell viability assay, MCF-7; format: cell-based, human; conditions: for Concentration at which cytotoxicity starts, MCF-7: 24 h and 72 h; for IC50: Homo sapiens
Description: as §2, §3

[7] = system: MCF-7; assay: Clonogenic assay, MCF-7; format: cell-based, human; conditions: 72 h treatment
Description: (§4) MCF-7, MRC-5, and SW620 human cell lines were seeded in 6-well plates at a density of 300 cells per well containing 1 mL of medium. […] The cell culture medium was changed to a new medium every 2 days. Cells were washed twice with PBS and fixed with methanol for 30 min, followed by staining with 0.5% crystal violet. The assay was performed in triplicate. Colonies were manually counted, and colony survival was presented as a percentage relative to the respective negative control.

[8] = system: SW620; assay: Clonogenic assay, SW620; format: cell-based, human; conditions: 72 h treatment
Description: as §4

[9] = system: MRC-5; assay: Alkaline comet assay, MRC-5; format: cell-based, human; conditions: for Damage Índex (DI) ± SD, MRC-5: 3 h
Description: (§5) For genotoxicity assays, 1.0 × 10^4 cells were seeded on twenty-four-well plates and incubated for 24 h. […] Each dose was evaluated by three independent experiments. The alkaline comet assay was performed as described by Singh et al.. Following treatment, cells were trypsinized and resuspended in a complete medium. Slides were prepared with 20 μL of cellular suspension and were dissolved in 0.75% low melting-point agarose. Slides were immersed in cold lysis buffer (2.5 M NaCl, 100 mM EDTA, 10 mM Tris, 1% Triton X-100, 10% DMSO, pH 10) for at least 1 h. Slides were placed in an electrophoresis chamber with cold alkaline buffer (300 mM NaOH and 1 mM de EDTA, pH > 13) to unwind the DNA. Electrophoresis was performed at 0.7 V/cm, 300 mA for 30 min at 4 °C. Slides were then neutralized with Tris–HCl buffer (pH 7.5) for 15 min and stored at room temperature. Slides were stained with silver staining protocol. The gels were then left to dry overnight at room temperature before being analyzed. From two replicate slides, 100 cells were selected and analyzed for DNA migration. Migration of DNA fragments was determined according to comet class as described by Azqueta: class 0, intact nuclei, without tail; class 1, nuclei with tail less than the diameter of the nucleus; class 2, tail size varying between one and two times the diameter of the nucleus; class 3, tail size varying between two and three times the diameter of the nucleus; and class 4, tail size more than three times the diameter of the nucleus but with the head and tail of the comet still distinguishable. The DI ranges from 0 (100 completely undamaged cells × 0) to 400 (100 cells with maximum damage × 4).

[10] = system: MCF-7; assay: Alkaline comet assay, MCF-7; format: cell-based, human; conditions: for Damage Índex (DI) ± SD, MCF-7: 3 h
Description: as §5

[11] = system: SW620; assay: Alkaline comet assay, SW620; format: cell-based, human; conditions: for Damage Índex (DI) ± SD, SW620: 3 h
Description: as §5

[12] = system: MRC-5; assay: Clonogenic assay, MRC-5; format: cell-based, human; conditions: 72 h treatment; general statement covers MCF-7, SW620 and MRC-5
Description: as §4

[13] = system: SW620 (colorectal adenocarcinoma); conditions: 72 h; cited from earlier work
[14] = system: MCF-7 (breast adenocarcinoma); set-up: method as in PMID 36592511; conditions: 72 h; cited from earlier work

Row | IC50 ([5]; SW-620, 24 h) [µM] | IC50 ([5]; SW-620, 72 h) [µM] | IC50 ([6]; MCF7, 24 h) [µM] | IC50 ([6]; MCF7, 72 h) [µM] | SMILES | Antioxidant ability in the DPPH radical capture assay [1] | IC50 [3] [µM] | Concentration at which cytotoxicity starts, MRC-5 [4] [µM] | IC50 ([4]; MRC5, 24 h) [µM] | IC50 ([4]; MRC5, 72 h) [µM] | Concentration at which cytotoxicity starts, SW620 [5] [µM] | Concentration at which cytotoxicity starts, MCF-7 [6] [µM] | Inhibition of colony survival, SW620 compared with MRC-5 [8] | Concentrations that increase damage index (DI), MRC-5 [9] | Damage Índex (DI) ± SD, MRC-5 ([9]; 1 μM) | Damage Índex (DI) ± SD, MRC-5 ([9]; 10 μM) | Damage Índex (DI) ± SD, MRC-5 ([9]; 50 μM) | Damage Índex (DI) ± SD, MRC-5 ([9]; 100 μM) | Concentrations that increase damage index (DI), MCF-7 [10] | Damage Índex (DI) ± SD, MCF-7 ([10]; 1 μM) | Damage Índex (DI) ± SD, MCF-7 ([10]; 10 μM) | also measured
1 | 27.6 ± 1.2 | 16.4 | 30.5 ± 4.4 | 28.6 | CC(C)(C)c1cc(/C=N/CCNc2ccccc2)c(O)c(C(C)(C)C)c1 [1a] | inability to be antioxidants | 23 | 10 | 14.7 ± 1.1 | 17.1 | 10 | 10 | not selective | 10 to 100 µM | 19.3 ± 3.9 | 39.7 ± 9.5 | 121.3 ± 10.0 | 200.3 ± 22.0 | 10 to 100 µM | 14.7 ± 3.2 | 34.3 ± 4.2 | Concentration from which ABTS+ radical scavenging activity is present [2]: 5 µM; Imax (% of maximal inhibition), ABTS+ [2]: up to 87%; IC50 ([2]; concentration to decrease 50% of ABTS+ radical formation): 7.5 ± 2.2 µM; Inhibition of colony survival, MCF-7 compared with MRC-5 [7]: not selective; Damage Índex (DI) ± SD, MCF-7 ([10]; 50 μM): 100.7 ± 2.9; Damage Índex (DI) ± SD, MCF-7 ([10]; 100 μM): 154.7 ± 7.2; Concentrations that increase damage index (DI), SW620 [11]: 50 µM and 100 µM; Damage Índex (DI) ± SD, SW620 ([11]; 1 μM): 16.7 ± 2.5; Damage Índex (DI) ± SD, SW620 ([11]; 10 μM): 21.3 ± 6.7; Damage Índex (DI) ± SD, SW620 ([11]; 50 μM): 107.0 ± 7.2; Damage Índex (DI) ± SD, SW620 ([11]; 100 μM): 212.3 ± 2.5
2 | 41.9 ± 9.7 | 10.5 | 111 ± 9.5 | 44.5 | CC(C)(C)c1cc(/C=N/c2cccc3cccnc23)c(O)c(C(C)(C)C)c1 [1b, [6-(C9H6N-8-(N=CH))-2,4-di-tert-butyl-(OHC6H2)]] | inability to be antioxidants | 69 ± 9 | 10 | 63.4 ± 5.5 | 15.5 | 1 | 10 | more potent inhibitory effect on the SW620 cells than on MRC-5 cells | 50 µM and 100 µM | 16.3 ± 2.5 | 20.0 ± 5.2 | 101.0 ± 5.0 | 135.0 ± 6.2 | 50 µM and 100 µM | 16.0 ± 4.0 | 22.3 ± 6.4 | ABTS+ radical scavenging activity ([2]; doses 1-200 µM): inactive at all doses; Inhibition of cell proliferation at the highest treatment concentrations tested (colony survival) [12]: not statistically significant; Damage Índex (DI) ± SD, MCF-7 ([10]; 50 μM): 52.7 ± 9.5; Damage Índex (DI) ± SD, MCF-7 ([10]; 100 μM): 102.0 ± 6.0; Concentrations that increase damage index (DI), SW620 [11]: ≥ 10 µM; Damage Índex (DI) ± SD, SW620 ([11]; 1 μM): 10.0 ± 1.0; Damage Índex (DI) ± SD, SW620 ([11]; 10 μM): 34.7 ± 7.4; Damage Índex (DI) ± SD, SW620 ([11]; 50 μM): 120.0 ± 5.3; Damage Índex (DI) ± SD, SW620 ([11]; 100 μM): 236.0 ± 8.2
3 |  |  |  |  | O=c1[nH]cc(F)c(=O)[nH]1 [5-Fluorouracil] |  |  |  |  |  |  |  |  |  |  |  |  |  |  |  |  | IC50 [13]: 4 µM
4 |  |  |  |  | O=C1O[C@H]([C@@H](O)CO)C(O)=C1O [Ascorbic acid, ascorbic acid, reference compound] |  |  |  |  |  |  |  |  |  |  |  |  |  |  |  |  | IC50 ([1]; concentration to decrease 50% of DPPH radical formation): 17 µM
5 |  |  |  |  | N.N.[Cl][Pt][Cl] [cisplatin] |  |  |  |  |  |  |  |  |  |  |  |  |  |  |  |  | IC50 [14]: 12.7 ± 0.1 µM
